In PMC5779714, “Metallochaperone UreG serves as a new target for design of urease inhibitor: A novel strategy for development of antimicrobials” (PLoS Biology, 2018):
Where “and” joins values, the source holds several entries; their conditions need not be identical. Identical values can stand only once. Like-named read-outs stand apart in the source and are kept apart here.

Experiments:
UreG [1] = molecular target: T1, UreG (Helicobacter pylori, UniProt Q09066); assay: biochemical; type: biochemical, H. pylori; details: for inhibition at 20 µM: read-out: inhibition of the GTPase activity of UreG
Protocol: A Malachite Green Phosphate Assay Kit (Abcam) was utilized to quantify the hydrolysis of GTP by UreG under various conditions. […] GTPase activity of UreG was triggered through the addition of 10 mM KHCO3, after which the reaction was incubated at 37°C for 30 min; then, the free phosphate from hydrolysis of GTP was determined. […] To eliminate the potential effect of small compounds on malachite green assay, the assay included a subtraction of the absorbance of reaction with the same amounts of compounds but without UreG enzyme for each reading.

H. pylori = assay: Growth of H. pylori in neutral and acidic brucella broth (OD600); type: cell-based
UreG [2] = molecular target: T1, UreG; assay: Fluorescence-quenching titration of UreG (Kd); type: binding, H. pylori
Protocol: Using the relation between the emission intensity at 310 nm and molecule-UreG–bound species, as well as one site-binding model, the Kd values were calculated by a logistic regression model referring to a previous report. […] All fluorescence readings were corrected for the dilution effect.

[3] = tested on: AGS cells exposed to H. pylori; assay: Cell infection model: AGS cells exposed to H. pylori pre-cultured with inhibitors; type: cell-based, human; details: for Ammonia in medium (mM) / Ammonia in medium: H. pylori pre-cultured with 10 μM inhibitor, urea 10 mM, 24 h, Hp alone ca. 2.5 mM

T1 sequence (Q09066 whole entry): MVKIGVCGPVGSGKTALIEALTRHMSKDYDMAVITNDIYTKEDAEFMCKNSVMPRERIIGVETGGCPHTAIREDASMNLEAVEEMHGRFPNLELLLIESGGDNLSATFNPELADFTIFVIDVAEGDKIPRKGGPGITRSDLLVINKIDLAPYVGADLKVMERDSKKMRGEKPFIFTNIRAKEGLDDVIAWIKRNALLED

Structure (SMILES)	IC50 (UreG [1])	Normalized GTPase activity(%) (UreG [1]; log[μM] 0)	Normalized GTPase activity(%) (UreG [1]; log[μM] 0.60206)	Normalized GTPase activity(%) (UreG [1]; log[μM] 0.90309)	Normalized GTPase activity(%) (UreG [1]; log[μM] 1.20412)	Normalized GTPase activity(%) (UreG [1]; log[μM] 1.50515)	Normalized GTPase activity(%) (UreG [1]; log[μM] 1.79588)	Normalized GTPase activity(%) (UreG [1]; log[μM] 2.09691)	Normalized GTPase activity(%) (UreG [1]; log[μM] 2.39794)	inhibition at 20 µM (UreG [1])	Kd (UreG [2])	fluorescence intensity (a.u.) (UreG [2]; log(ligand[μM]) 0)	fluorescence intensity (a.u.) (UreG [2]; log(ligand[μM]) 0.30103)	fluorescence intensity (a.u.) (UreG [2]; log(ligand[μM]) 0.60206)	fluorescence intensity (a.u.) (UreG [2]; log(ligand[μM]) 0.90309)	fluorescence intensity (a.u.) (UreG [2]; log(ligand[μM]) 1.20412)	fluorescence intensity (a.u.) (UreG [2]; log(ligand[μM]) 1.50515)	fluorescence intensity (a.u.) (UreG [2]; log(ligand[μM]) 1.80618)	fluorescence intensity (a.u.) (UreG [2]; log(ligand[μM]) -0.30103)	fluorescence intensity (a.u.) (UreG [2]; log(ligand[μM]) -0.60206)	further results
Cc1cccc(N2CCN(C(=O)c3cc(S(=O)(=O)N(C)C)ccc3N3CCCC3)CC2)c1C [cmpd4]	16.8 ± 6.5 µM	97.2%	90.0%	69.0%	56.9%	41.1%	28.1%	11.6%	16.3%	37 to 72%	10.6 ± 2.3 µM	2682 a.u.	2455.33 a.u.	2056.33 a.u.	1714.67 a.u.	1176.67 a.u.	615.233 a.u.	297.433 a.u.	2867.67 a.u.	2962.67 a.u.	Normalized GTPase activity(%) (UreG [1]; purified Ni-UreG (5 µM), 20 µM small compound): 43.9%; OD600(pH5) (H. pylori; acidic brucella broth pH 5.0, 24 h, control 0.93): 0.46; OD600(pH5) (H. pylori; acidic brucella broth pH 5.0, 24 h, control 0.93, listed as cmp4): 0.464; OD600 (pH7) (H. pylori; neutral medium, 24 h, control 0.18): 0.141; fluorescence intensity (a.u.) (UreG [2]; log(ligand[μM]) -1.30103): 3018 a.u.; Normalized cell survival (%) ([3]; H. pylori pre-cultured with 10 μM inhibitor 24 h, MOI 20, 24 h infection, Hp alone 28.8%): 70.3% ± 11.3%; Normalized cell survival (%) ([3]; H. pylori pre-cultured with 10 μM inhibitor 24 h, MOI 20, 24 h infection, Hp alone 28.8%, listed as cmp4): 70.2703%; Ammonia in medium (mM) [3]: around 1.1 mM; Ammonia in medium ([3]; listed as cmp4): 1.1872 mM
O=C(Cn1c2ccccc2c(=O)c2ccccc21)N/N=C/c1cc([N+](=O)[O-])ccc1N1CCCCCC1 [cmpd8]	13.2 ± 7.6 µM	100.3%	93.8%	81.8%	41.6%	32.9%	13.8%	2.1%	16.7%	37 to 72%	7.5 ± 3.6 µM	2868.33 a.u.	2606 a.u.	2272 a.u.	1853.67 a.u.	1359.33 a.u.	767.233 a.u.	360.267 a.u.	3140.33 a.u.	3427 a.u.	OD600(pH5) (H. pylori; pH 5): 0.47; OD600 (pH7) (H. pylori; pH 7): 0.116; fluorescence intensity (a.u.) (UreG [2]; log(ligand[μM]) 1.68124): 595.5 a.u.; fluorescence intensity (a.u.) (UreG [2]; log(ligand[μM]) -1.30103): 3670 a.u.; Normalized cell survival (%) [3]: 81.1% ± 11.3% and 81.0811%; Ammonia in medium (mM) [3]: around 1.1 mM; Ammonia in medium ([3]; listed as cmp8): 1.209 mM
